# Measured values as given in ChEMBL document CHEMBL6121065, “Targeting the "Undruggable": Small-Molecule Inhibitors of Proliferating Cell Nuclear Antigen (PCNA) in the Spotlight in Cancer Therapy” (J Med Chem, 2025).
# pIC50, pKi: −log10 of the molar value.
# How the values were obtained:
# [1] = test system: SK-N-AS; test: Antiproliferative activity against human SK-N-AS cells assessed as reduction in cell viability incubated for 72 hrs by cell-titer Glo assay; format: functional, cell-based
# [2] = target: T1, Proliferating cell nuclear antigen (Homo sapiens, UniProt P12004); test: Binding affinity to N-terminal recombinant 6His-tagged PCNA (unknown origin) extracted from Escherichia coli BL21 (DE3) by fluorescence polarization assay
# T1 sequence (P12004 whole entry): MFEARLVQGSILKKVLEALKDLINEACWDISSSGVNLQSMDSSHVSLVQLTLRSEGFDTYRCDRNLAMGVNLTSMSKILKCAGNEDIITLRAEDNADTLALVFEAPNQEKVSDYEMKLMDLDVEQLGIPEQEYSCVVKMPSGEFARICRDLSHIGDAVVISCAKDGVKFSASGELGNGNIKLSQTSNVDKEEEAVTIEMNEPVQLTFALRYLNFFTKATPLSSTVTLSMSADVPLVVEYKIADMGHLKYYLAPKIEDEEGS
# [3] = test system: SK-N-AS; test: Anticancer activity against human SK-N-AS cells; format: functional, cell-based
# [4] = Antiproliferative activity against human SK-N-BE(2)-C cells; format: functional, cell-based
# [5] = test system: SK-N-DZ; test: Antiproliferative activity against human SK-N-DZ cells; format: functional, cell-based
# [6] = target: T1, Proliferating cell nuclear antigen; test: Inhibition of N-terminal 6His-tagged recombinant PCNA (unknown origin) extracted from Escherichia coli BL21 (DE3) by fluorescence based analysis
# [7] = test system: SH-SY5Y; test: Antiproliferative activity against human SH-SY5Y cells assessed as reduction in cell viability; format: functional, cell-based
# [8] = test system: A673; test: Antiproliferative activity against human A673 cells assessed as reduction in cell viability incubated for 72 hrs by MTT assay; format: functional, cell-based; conditions: A673, 72 h
# [9] = test system: A549; test: Antiproliferative activity against human A549 cells assessed as reduction in cell viability incubated for 72 hrs by MTT assay; format: functional, cell-based; conditions: A549, 72 h
# [10] = test system: HeLa; test: Antiproliferative activity against human HeLa cells assessed as reduction in cell viability incubated for 72 hrs by MTT assay; format: functional, cell-based
# [11] = test system: MCF7; test: Antiproliferative activity against human MCF7 cells assessed as reduction in cell growth measured for 48 hrs by MTT assay; format: functional, cell-based; conditions: MCF7, 48 h
# [12] = test system: HeLa; test: Antiproliferative activity against human HeLa cells assessed as reduction in cell growth measured for 48 hrs by MTT assay; format: functional, cell-based
# [13] = test system: Jurkat; test: Antiproliferative activity against human Jurkat cells assessed as reduction in cell growth measured for 48 hrs by MTT assay; format: functional, cell-based
# [14] = test system: HepG2; test: Antiproliferative activity against human HepG2 cells assessed as reduction in cell growth measured for 48 hrs by MTT assay; format: functional, cell-based; conditions: HepG2, 48 h
# [15] = test system: HCT-116; test: Antiproliferative activity against human HCT-116 cells assessed as reduction in cell growth measured for 48 hrs by MTT assay; format: functional, cell-based; conditions: HCT-116, 48 h
pIC50 [1],pKi [2],SMILES,further results
,6.62,NC[C@@H](N)Cc1cc(I)c(Oc2ccc(O)cc2)c(I)c1,
,6.82,Cc1noc(C)c1S(=O)(=O)N[C@H](CO)Cc1cc(I)c(Oc2ccc(O)cc2)c(I)c1,
,6.24,O=S(=O)(N[C@H](CO)Cc1cc(I)c(Oc2ccc(O)cc2)c(I)c1)c1ccccc1,
,< 5.32,COc1ccc(Oc2c(I)cc(CCC(=O)NS(C)(=O)=O)cc2I)cc1,
,6.04,COc1ccc(Oc2c(I)cc(CCC(=O)N3CCCCC3)cc2I)cc1,
,6.96,N[C@H](CNC(=O)NC(=O)CCN1CCOCC1)Cc1cc(I)c(Oc2ccc(O)cc2)c(I)c1,pIC50 [6]: 5.92
,6.06,CS(=O)(=O)NC(=O)Cc1cc(I)c(Oc2ccc(O)cc2)c(I)c1,
,6.92,CCCCCCNC(=O)NC[C@@H](N)Cc1cc(I)c(Oc2ccc(O)cc2)c(I)c1,
,6.06,O=C1CN(C(=O)Cc2cc(I)c(Oc3ccc(O)cc3)c(I)c2)CCN1,
,5.51,O=S(=O)(N[C@H](CO)Cc1cc(I)c(Oc2ccc(O)cc2)c(I)c1)c1ccc(O)cc1,
,7.22,N[C@H](CO)Cc1cc(I)c(Oc2ccc(O)c(I)c2)c(I)c1,
,6.20,CCNC(=O)Cc1cc(I)c(Oc2ccc(O)cc2)c(I)c1,
,5.79,CNC(=O)CCc1cc(I)c(Oc2ccc(OC)cc2)c(I)c1,
,< 5.32,O=C1CN(C(=O)CCc2cc(I)c(Oc3ccc(O)cc3)c(I)c2)CCN1,
,6.03,COc1ccc(S(=O)(=O)N[C@H](CO)Cc2cc(I)c(Oc3ccc(O)cc3)c(I)c2)cc1,
,6.64,O=C(CCc1cc(I)c(Oc2ccc(O)cc2)c(I)c1)N1CCCCC1,
,6.76,Cc1cc(Oc2c(I)cc(C[C@H](N)CO)cc2I)ccc1O,
,6.27,O=C1NC[C@H](Cc2cc(I)c(Oc3ccc(O)cc3)c(I)c2)N1,
,6.11,CNC(=O)Cc1cc(I)c(Oc2ccc(O)cc2)c(I)c1,
,6.22,O=C(Cc1cc(I)c(Oc2ccc(O)cc2)c(I)c1)N1CCOCC1,
,6.14,CN(C)C(=O)Cc1cc(I)c(Oc2ccc(O)cc2)c(I)c1,
,6.89,N[C@H](CNC(=O)CO)Cc1cc(I)c(Oc2ccc(O)cc2)c(I)c1,
,8.00,N[C@H](CNC(=O)NCc1ccccc1)Cc1cc(I)c(Oc2ccc(O)cc2)c(I)c1,
,5.72,CS(=O)(=O)NC(=O)CCc1cc(I)c(Oc2ccc(O)cc2)c(I)c1,

# Continued, compound first:
SMILES,pIC50 [1],pKi [2],further results
O=C(CNC(=O)c1nccc2ccccc12)Nc1ccccc1Oc1ccncc1,4.38,,
O=C(CNC(=O)c1cccc2ccccc12)Nc1ccccc1Oc1ccncc1,< 4.30,,
O=C(CNC(=O)c1cccc2ccccc12)Nc1cccc(Oc2ccncc2)c1,4.67,,
NC(=O)CN(Cc1ccc(O)cc1)C(=O)CN(CCO)C(=O)CN[C@H](CO)Cc1cc(I)c(Oc2ccc(O)cc2)c(I)c1,,7.40,
O=C(Nc1ccccc1Oc1ccccc1)c1cccc2ccccc12,,,pIC50 [3]: < 5.00
O=C(CNC(=O)c1cccc2ccccc12)Nc1ccccc1Oc1ccccc1,7.00,,pIC50 [4]: 6.49; pIC50 [5]: 6.63
COc1cccc(Oc2ccccc2NC(=O)CNC(=O)c2cccc3ccccc23)c1,6.90,,pIC50 [4]: 6.63; pIC50 [5]: 6.54
O=C(CNC(=O)c1cccc2ccccc12)Nc1ccc(Oc2ccncc2)cc1,5.96,,
O=C(CNC(=O)c1cncc2ccccc12)Nc1ccccc1Oc1ccccc1,< 4.52,,
COc1cccc(Oc2ccccc2NC(=O)CNC(=O)c2ccc(-c3ccccc3)cc2)c1,< 5.00,,
O=C(CNC(=O)c1cccc2ccccc12)Nc1c(Cl)cccc1Oc1ccccc1,< 5.00,,pIC50 [4]: < 5.00; pIC50 [5]: < 5.00
O=C(CNC(=O)c1nccc2ccccc12)Nc1cccc(Oc2ccncc2)c1,4.47,,
C[C@H](NC(=O)c1cccc2ccccc12)C(=O)Nc1ccccc1Oc1ccccc1,,,pIC50 [7]: 5.40
O=C(CNC(=O)c1cncc2ccccc12)Nc1cccc(Oc2ccncc2)c1,< 4.52,,
O=C(CNC(=O)c1cccc2ccccc12)Nc1ccccc1Oc1cccc(O)c1,6.72,,pIC50 [4]: 6.31; pIC50 [5]: 6.27
NCc1ccc(CN(CC(N)=O)C(=O)CN(CCO)C(=O)CN[C@H](CO)Cc2cc(I)c(Oc3ccc(O)cc3)c(I)c2)cc1,,6.94,pIC50 [6]: 5.93
O=C(CNC(=O)c1nccc2ccccc12)Nc1ccc(Oc2ccncc2)cc1,< 4.52,,
NCCCC[C@H](NC(=O)c1cccc2ccccc12)C(=O)Nc1ccccc1Oc1ccccc1,,,pIC50 [3]: < 5.00
O=C(CNC(=O)c1cncc2ccccc12)Nc1ccccc1Oc1ccncc1,< 4.52,,

SMILES,pIC50 [1],pKi [2],further results
O=C(CNC(=O)c1cncc2ccccc12)Nc1ccc(Oc2ccncc2)cc1,< 4.52,,
O=C(CCNC(=O)c1cccc2ccccc12)Nc1ccccc1Oc1ccccc1,,,pIC50 [3]: < 5.00
COc1cccc(Oc2ccccc2NC(=O)[C@H](C)NC(=O)c2cccc3ccccc23)c1,,,pIC50 [3]: < 5.00
O=C(CNC(=O)c1cccc2ccccc12)Nc1ccccc1Cc1ccccc1,5.96,,
CC(C)[C@@H](NC(=O)c1cccc2ccccc12)C(=O)Nc1ccccc1Oc1ccccc1,,,pIC50 [3]: < 5.00
COc1ccc(Oc2ccccc2NC(=O)CNC(=O)c2cccc3ccccc23)cc1,7.04,,pIC50 [4]: 6.63; pIC50 [5]: 6.57
O=C(O)CC[C@H](NC(=O)c1cccc2ccccc12)C(=O)Nc1ccccc1Oc1ccccc1,,,pIC50 [3]: < 5.00
COc1cccc(Oc2ccccc2NC(=O)CNC(=O)Cc2cccc3ccccc23)c1,< 5.00,,
NCCCC[C@@H](NC(=O)c1cccc2ccccc12)C(=O)Nc1ccccc1Oc1ccccc1,,,pIC50 [3]: < 5.00
O=C(CNC(=O)c1cccc2ccccc12)Nc1ccccc1Oc1ccc(O)cc1,6.81,,pIC50 [4]: 6.31; pIC50 [5]: 6.33
COc1cccc(Oc2ccccc2NC(=O)CNC(=O)c2c(C)cc(C)cc2C)c1,,,pIC50 [8]: 5.26; pIC50 [9]: 5.33; pIC50 [10]: 5.19
COc1cccc(Oc2ccccc2NC(=O)CNC(=O)CCc2cccc3ccccc23)c1,< 5.00,,
O=C(CNC(=O)c1nccc2ccccc12)Nc1ccccc1Oc1ccccc1,4.46,,
CC(C)[C@H](NC(=O)c1cccc2ccccc12)C(=O)Nc1ccccc1Oc1ccccc1,,,pIC50 [3]: < 5.00
O=C(O)CC[C@@H](NC(=O)c1cccc2ccccc12)C(=O)Nc1ccccc1Oc1ccccc1,,,pIC50 [3]: < 5.00
O=C(CNC(=O)c1cccc2ccccc12)Nc1ccc(Cl)cc1Oc1ccccc1,6.73,,pIC50 [4]: 6.30; pIC50 [5]: 6.35
NC(=O)CN(Cc1ccc(CO)cc1)C(=O)CNC(=O)CN[C@H](CO)Cc1cc(I)c(Oc2ccc(O)cc2)c(I)c1,,,pIC50 [6]: 5.25
COc1cc(C(=O)N2CCC(N3CCN(C)CC3)CC2)ccc1Nc1ncc2c(n1)N(C)c1ccccc1C(=O)N2C,,,pIC50 [11]: 4.37; pIC50 [12]: 4.87; pIC50 [13]: 5.23; pIC50 [14]: 4.05; pIC50 [15]: 5.03
NC(=O)CN(Cc1ccc2c(c1)OCO2)C(=O)CN(CCO)C(=O)CN[C@H](CO)Cc1cc(I)c(Oc2ccc(O)cc2)c(I)c1,,6.77,
